# Assay results reported in US20100292255A1, “Therapeutic Compounds and Their Use in Treating Diseases and Disorders” (Myriad Pharmaceuticals, Inc., priority 2007, published 2010).
# Target: T1, purified human Hsp90
# T1 construct: purified human Hsp90 (Stressgen, SPP-770)
# Assay: Hsp90 binding assay: displacement of BODIPY-labeled geldanamycin measured by fluorescence polarization
# Conditions: BODIPY-GM 10 nM, Hsp90 30 nM, overnight at room temperature; for IC50: read-out: GM displacement from purified Hsp90 measured by FP IC 50; for GM displacement from purified Hsp90 measured by FP Inhibition by 5 μM compd. (%): 5 μM compound
# Method in brief: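 Purified human Hsp90 at 30 nM and 10 nM BODIPY-GM tracer were incubated overnight at room temperature with compound in 2% DMSO. The buffer was 20 mM HEPES-KOH pH 7.3, 50 mM KCl, 5 mM MgCl2, 20 mM Na2MoO4, 2 mM DTT. Background-subtracted mP values read at 485/530 nm were normalized to DMSO wells to give % inhibition.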
Compound,IC50 [nM],GM displacement from purified Hsp90 measured by FP Inhibition by 5 μM compd. (%)
"CC(C)(C)[C@H](O)C(=O)N1CCC(CCn2c(Sc3cc4c(cc3Br)OCCO4)nc3c(N)ncnc32)CC1 [compound 106, (2S)-1-[4-(2-{6-Amino-8-[(7-bromo-2,3-dihydro-1,4-benzodioxin-6-yl)thio]-9H-purin-9-yl}ethyl)piperidin-1-yl]-3,3-dimethyl-1-oxobutan-2-ol]",70,
"CC(C)(C)[C@H](O)C(=O)N1CCC(CCn2cnc(N)c3nc(Sc4cc5c(cc4Br)OCCO5)nc2-3)CC1 [compound 107, (2S)-1-[4-(2-{6-Amino-8-[(7-bromo-2,3-dihydro-1,4-benzodioxin-6-yl)thio]-3H-purin-3-yl}ethyl)piperidin-1-yl]-3,3-dimethyl-1-oxobutan-2-ol]",,59.0
"C[C@H](O)C(=O)N1CCC(CCn2c(Sc3cc4c(cc3Br)CCC4)nc3c(N)ncnc32)CC1 [compound 108, (S)-1-(4-{2-[6-Amino-8-(6-bromo-indan-5-ylsuIfanyl)-purin-9-yl]-ethyl}-piperidin-1-yl)-2-hydroxy-propan-1-one]",160,
"C[C@H](O)C(=O)N1CCC(CCn2cnc(N)c3nc(Sc4cc5c(cc4Br)CCC5)nc2-3)CC1 [compound 109, (S)-1-(4-{2-[6-Amino-8-(6-bromo-indan-5-ylsulfanyl)-purin-3-yl]-ethyl}-piperidin-1-yl)-2-hydroxy-propan-1-one]",,58.0
"CCc1ccc(Br)c(Sc2nc3c(N)ncn(CCC4CCN(C(=O)[C@H](C)O)CC4)c-3n2)c1 [compound 112, (2S)-1-[4-(2-{6-Amino-8-[(2-bromo-5-ethylphenyl)thio]-3H-purin-3-yl}ethyl)piperidin-1-yl]-1-oxopropan-2-ol]",,13.0
"C[C@@H](O)C(=O)N1CCC(CCn2c(Sc3cc4c(cc3Br)OCCO4)nc3c(N)ncnc32)CC1 [compound 113, (2R)-1-[4-(2-{6-Amino-8-[(7-bromo-2,3-dihydro-1,4-benzodioxin-6-yl)thio]-9H-purin-9-yl}ethyl)piperidin-1-yl]-1-oxopropan-2-ol]",72,
"C[C@H](NC(=O)OC(C)(C)C)C(=O)N1CCCC(Cn2cnc(N)c3nc(Sc4nc5cccc(Cl)c5s4)nc2-3)C1 (stereo partly drawn) [compound 116, tert-Butyl {(1S)-2-[3-({6-amino-8-[(7-chloro-1,3-benzothiazol-2-yl)thio]-3H-purin-3-yl}methyl)piperidin-1-yl]-1-methyl-2-oxoethyl}carbamate]",,15.0
"COc1cc(OC)c(Cl)c(Sc2nc3c(N)ncn(CC4CCCN(C(=O)[C@H](C)NC(=O)OC(C)(C)C)C4)c-3n2)c1 (stereo partly drawn) [compound 118, tert-Butyl {(1S)-2[3-({6-amino-8-[(2-chloro-3,5-dimethoxyphenyl)thio]-3H-purin-3-yl}methyl)piperidin-1-yl]-1-methyl-2-oxoethyl}carbamate]",,12.0
"C[C@@H](NC(=O)OC(C)(C)C)C(=O)N1CCC(Cn2c(Sc3cc4c(cc3Br)OCCO4)nc3c(N)ncnc32)CC1 [compound 120, tert-Butyl {(1R)-2-[4-({6-amino-8-[(7-bromo-2,3-dihydro-1,4-benzodioxin-6-yl)thio]-9H-purin-9-yl}methyl)piperidin-1-yl]-1-methyl-2-oxoethyl}carbamate]",400,
"COc1cc(OC)c(Cl)c(Sc2nc3c(N)ncnc3n2CC2CCCN(C(=O)[C@H](C)N)C2)c1 (stereo partly drawn) [compound 123, 9-({1-[(2S)-2-Aminopropanoyl]piperidin-3-yl}methyl)-8-[(2-chloro-3,5-dimethoxyphenyl)thio]-9H-purin-6-amine]",3800,
"C[C@@H](N)C(=O)N1CCC(Cn2c(Sc3cc4c(cc3Br)OCCO4)nc3c(N)ncnc32)CC1 [compound 124, 9-([1-[(2R)-2-Aminopropanoyl]piperidin-4-yl}methyl)-8-[(7-bromo-2,3-dihydro-1,4-benzodioxin-6-yl)thio]-9H-purin-6-amine]",295,
"C[C@H](N)C(=O)N1CCC(Cn2c(Sc3cc4c(cc3Br)OCCO4)nc3c(N)ncnc32)CC1 [compound 125, 9-({1-[(2S)-2-Aminopropanoyl]piperidin-4-yl}methyl)-8-[(7-bromo-2,3-dihydro-1,4-benzodioxin-6-yl)thio]-9H-purin-6-amine]",500,
"C[C@H](O)C(=O)N[C@H](C)C(=O)N1CCC(Cn2c(Sc3cc4c(cc3Br)OCCO4)nc3c(N)ncnc32)CC1 [compound 126, (2S)-N-{(1R)-2-[4-({6-Amino-8-[(7-bromo-2,3-dihydro-1,4-benzodioxin-6-yl)thio]-9H-purin-9-yl}methyl)piperidin-1-yl]-1-methyl-2-oxoethyl}-2-hydroxypropanamide]",> 5000,
"C[C@@H](NC(=O)[C@@H](C)OC(=O)C(C)(C)C)C(=O)N1CCC(Cn2c(Sc3cc4c(cc3Br)OCCO4)nc3c(N)ncnc32)CC1 [compound 127, (1R)-2-({(1R)-2-[4-({6-amino-8-[(7-bromo-2,3-dihydro-1,4-benzodioxin-6-yl)thio]-9H-purin-9-yl}methyl)piperidin-1-yl]-1-methyl-2-oxoethyl}amino)-1-methyl-2-oxoethyl pivalate]",> 5000,
"C[C@@H](NC(=O)C(C)(C)C)C(=O)N1CCC(Cn2c(Sc3cc4c(cc3Br)OCCO4)nc3c(N)ncnc32)CC1 [compound 128, N-{(1R)-2-[4-({6-amino-8-[(7-bromo-2,3-dihydro-1,4-benzodioxin-6-yl)thio]-9H-purin-9-yl}methyl)piperidin-1-yl]-1-methyl-2-oxoethyl}-2,2-dimethylpropanamide]",440,
"C[C@@H](NC(=O)CC(C)(C)C)C(=O)N1CCC(Cn2c(Sc3cc4c(cc3Br)OCCO4)nc3c(N)ncnc32)CC1 [compound 129, N-{(1R)-2-[4-({6-Amino-8-[(7-bromo-2,3-dihydro-1,4-benzodioxin-6-yl)thio]-9H-purin-9-yl}methyl)piperidin-1-yl]-1-methyl-2-oxoethyl}-3,3-dimethylbutanamide]",3000,
"C[C@H](O)C(=O)N[C@@H](C)C(=O)N1CCC(Cn2c(Sc3cc4c(cc3Br)OCCO4)nc3c(N)ncnc32)CC1 [compound 130, (2S)—N-{(1S)-2-[4-({6-Amino-8-[(7-bromo-2,3-dihydro-1,4-benzodioxin-6-yl)thio]-9H-purin-9-yl}methyl)piperidin-1-yl]-1-methyl-2-oxoethyl}-2-hydroxypropanamide]",1100,
"C[C@H](NC(=O)CO)C(=O)N1CCC(Cn2c(Sc3cc4c(cc3Br)OCCO4)nc3c(N)ncnc32)CC1 [compound 131, N-{(1S)-2-[4-({6-Amino-8-[(7-bromo-2,3-dihydro-1,4-benzodioxin-6-yl)thio]-9H-purin-9-yl}methyl)piperidin-1-yl]-1-methyl-2-oxoethyl}-2-hydroxyacetamide]",1900,
"N#Cc1cc2c(cc1Sc1nc3c(N)ncnc3n1CCC1CCN(C(=O)[C@@H](N)C(F)(F)F)CC1)OCO2 [compound 133, 6-[(6-Amino-9-{2-[1-(3,3,3-trifluoroalanyl)piperidin-4-yl]ethyl}-9H-purin-8-yl)thio]-1,3-benzodioxole-5-carbonitrile]",505,
"N#Cc1cc2c(cc1Sc1nc3c(N)ncn(CCC4CCN(C(=O)[C@@H](N)C(F)(F)F)CC4)c-3n1)OCO2 [compound 134, 6-[(6-amino-3-{2-[1-(3,3,3-trifluoroalanyl)piperidin-4-yl]ethyl}-3H-purin-8-yl)thio]-1,3-benzodioxole-5-carbonitrile]",,9.0
"N#Cc1cc2c(cc1Sc1nc3c(N)ncnc3n1CCC1CCN(C(=O)[C@@H]3CC(F)(F)CN3)CC1)OCO2 [compound 135, 6-[(6-Amino-9-{2-[1-(4,4-difluoro-L-prolyl)piperidin-4-yl]ethyl}-9H-purin-8-yl)thio]-1,3-benzodioxole-5-carbonitrile]",900,
"C[C@@H](N)C(=O)N1CCCC(CCCn2c(Sc3cc4c(cc3Br)OCO4)nc3c(N)ncnc32)C1 (stereo partly drawn) [compound 136, 9-(3-{1-[(2R)-2-Aminopropanoyl]piperidin-3-yl}propyl)-8-[(6-bromo-1,3-benzodioxol-5-yl)thio]-9H-purin-6-amine]",110,
"CC(=O)NC(CCn1c(Sc2cc3c(cc2Br)OCO3)nc2c(N)ncnc21)C1CC1 (stereo not shown) [compound 137, N-{3-[6-Amino-8-(6-bromo-benzo[1,3]dioxol-5-ylsulfanyl)-purin-9-yl]-1-cyclopropyl-propyl}-acetamide]",240,
"CC(=O)NC(CCn1c(Sc2cc3c(cc2Br)OCCO3)nc2c(N)ncnc21)C1CC1 (stereo not shown) [compound 139, N-(3-{6-Amino-8-[(7-bromo-2,3-dihydro-1,4-benzodioxin-6-yl)thio]-9H-purin-9-yl}-1-cyclopropylpropyl)acetamide]",240,
"CC(=O)N1CCC(CCn2c(Sc3cc4c(cc3Br)OCCO4)nc3c(N)ncnc32)CC1 [compound 140, 9-[2-(1-Acetylpiperidin-4-yl)ethyl]-8-[(7-bromo-2,3-dihydro-1,4-benzodioxin-6-yl)thio]-9H-purin-6-amine]",45,
"Nc1ncnc2c1nc(Sc1cc3c(cc1Br)OCO3)n2CCC(NC(=O)CO)C1CC1 (stereo not shown) [compound 141, N-(3-{6-Amino-8-[(6-bromo-1,3-benzodioxol-5-yl)thio]-9H-purin-9-yl}-1-cyclopropylpropyl)-2-hydroxyacetamide]",170,
"CN(C)C(CCn1c(Sc2cc3c(cc2Br)OCCO3)nc2c(N)ncnc21)C1CC1 (stereo not shown) [compound 142, 8-[(7-Bromo-2,3-dihydro-1,4-benzodioxin-6-yl)thio]-9-[3-cyclopropyl-3-(dimethylamino)propyl]-9H-purin-6-amine]",205,
"CN(C)C(CCn1cnc(N)c2nc(Sc3cc4c(cc3Br)OCCO4)nc1-2)C1CC1 (stereo not shown) [compound 143, 8-[(7-bromo-2,3-dihydro-1,4-benzodioxin-6-yl)thio]-3-[3-cyclopropyl-3-(dimethylamino)propyl]-3H-purin-6-amine]",,27.0
